Data: article PMC12289921 (Nature Communications, 2025)

Biological target: PPIL4 with GFP-CRBN-DDB1∆B (Homo sapiens, UniProt Q8WUA2+Q96SW2)
Test: TR-FRET ternary complex formation
Assay type: binding

Chain of PPIL4 with GFP-CRBN-DDB1∆B (Q96SW2 whole entry): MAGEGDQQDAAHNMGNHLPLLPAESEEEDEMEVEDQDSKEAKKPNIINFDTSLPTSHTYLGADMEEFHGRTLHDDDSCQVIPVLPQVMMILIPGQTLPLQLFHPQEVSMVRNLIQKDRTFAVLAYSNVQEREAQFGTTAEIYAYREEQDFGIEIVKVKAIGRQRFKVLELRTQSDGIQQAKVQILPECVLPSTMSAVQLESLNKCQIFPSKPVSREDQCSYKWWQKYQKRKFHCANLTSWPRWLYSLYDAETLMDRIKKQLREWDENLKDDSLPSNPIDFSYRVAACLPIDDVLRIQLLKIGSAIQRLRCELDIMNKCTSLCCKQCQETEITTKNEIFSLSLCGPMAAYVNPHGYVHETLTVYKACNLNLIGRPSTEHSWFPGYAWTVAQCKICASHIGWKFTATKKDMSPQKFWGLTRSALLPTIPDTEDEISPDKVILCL
Chain of PPIL4 with GFP-CRBN-DDB1∆B (Q8WUA2 whole entry): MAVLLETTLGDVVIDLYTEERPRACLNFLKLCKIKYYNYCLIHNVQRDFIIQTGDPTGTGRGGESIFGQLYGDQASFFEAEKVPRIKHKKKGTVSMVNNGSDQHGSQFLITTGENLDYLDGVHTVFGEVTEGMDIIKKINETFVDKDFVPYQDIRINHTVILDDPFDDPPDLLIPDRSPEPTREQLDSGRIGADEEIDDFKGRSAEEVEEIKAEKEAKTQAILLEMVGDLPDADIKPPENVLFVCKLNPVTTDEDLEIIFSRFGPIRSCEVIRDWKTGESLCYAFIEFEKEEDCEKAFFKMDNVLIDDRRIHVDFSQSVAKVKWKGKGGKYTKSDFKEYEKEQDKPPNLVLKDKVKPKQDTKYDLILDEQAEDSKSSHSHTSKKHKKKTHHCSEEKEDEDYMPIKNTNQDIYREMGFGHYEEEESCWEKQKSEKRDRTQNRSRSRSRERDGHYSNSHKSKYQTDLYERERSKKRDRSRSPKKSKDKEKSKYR
Chain of PPIL4 with GFP-CRBN-DDB1∆B (Q16531 1-395 partner): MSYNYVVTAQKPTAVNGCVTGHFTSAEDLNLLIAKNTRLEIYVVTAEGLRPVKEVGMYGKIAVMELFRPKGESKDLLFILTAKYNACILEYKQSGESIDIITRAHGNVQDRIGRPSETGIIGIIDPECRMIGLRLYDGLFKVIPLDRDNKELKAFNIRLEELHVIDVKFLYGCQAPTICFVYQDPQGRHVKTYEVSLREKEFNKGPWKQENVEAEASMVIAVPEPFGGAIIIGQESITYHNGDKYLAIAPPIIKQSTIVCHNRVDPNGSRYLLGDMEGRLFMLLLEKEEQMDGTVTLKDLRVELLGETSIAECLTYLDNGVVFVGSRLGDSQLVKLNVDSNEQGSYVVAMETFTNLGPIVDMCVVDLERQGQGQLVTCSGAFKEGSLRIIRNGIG
Chain of PPIL4 with GFP-CRBN-DDB1∆B (Q16531 706-1140 partner): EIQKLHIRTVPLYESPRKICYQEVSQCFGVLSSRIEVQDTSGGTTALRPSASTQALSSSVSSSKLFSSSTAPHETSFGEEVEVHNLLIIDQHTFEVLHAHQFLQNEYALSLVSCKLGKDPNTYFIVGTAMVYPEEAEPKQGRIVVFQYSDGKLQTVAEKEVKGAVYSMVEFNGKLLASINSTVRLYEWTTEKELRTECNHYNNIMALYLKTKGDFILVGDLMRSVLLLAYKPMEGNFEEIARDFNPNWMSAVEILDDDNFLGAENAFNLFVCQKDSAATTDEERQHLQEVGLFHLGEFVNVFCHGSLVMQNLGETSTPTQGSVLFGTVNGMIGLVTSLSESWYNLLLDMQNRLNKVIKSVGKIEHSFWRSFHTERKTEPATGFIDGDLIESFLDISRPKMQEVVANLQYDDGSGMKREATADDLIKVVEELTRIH

`COc1cscc1-c1cn([C@H]2CCC(=O)NC2=O)nn1` [FPFT-2216] showed an EC50 of 1050 nM.
